Like-named read-outs stand apart in the source and are kept apart here.
Assays:
pre-term neonates [1] = settings: 5 ppm for 7 days, cited from earlier work
[2] = system: preterm neonates less than 30 weeks gestational age and less than 1250 grams; test: BPD-301 study: multi-center, double blind, placebo-controlled randomized clinical trial of inhaled nitric oxide for prevention of BPD; type: in vivo, human; set-up: Mortality by race, % / ALIVE No (mortality rate), %: concentration or dose not given beside the values; settings: for Mortality by race, %: INO N = 229
Procedure: A multi-center, double blind, placebo-controlled randomized clinical trial designated the “BPD-301” study was conducted to examine the efficacy of inhaled nitric oxide in preventing BPD in preterm neonates less than 30 weeks gestational age and less than 1250 grams who required mechanical ventilation or positive pressure support. Patients were identified as (1) American Indian or Alaska Native, (2) Asian, (3) Black, (4) Hispanic, (5) White, or (6) Other. Continuous inhaled nitric oxide or placebo gas administration into the inspiratory limb of the ventilator circuit in the mechanically ventilated subject was accomplished using an INOvent® delivery device. The placebo group received the same dose of nitrogen that the active or treatment group received of inhaled nitric oxide. Administration of inhaled nitric oxide or placebo was begun at a point during the window of time 5 to 14 days after the subject's birth and continued for 24 days thereafter. The starting dose was 20 ppm. A dose reduction schedule was followed: after 72 hours of treatment at 20 ppm, reducing to 10 ppm, and then reducing to 5 ppm on day 10. If an infant was extubated before 24 days, therapy was continued via nasal continuous positive airway pressure or nasal cannula to complete the protocol. 451 infants less than 30 weeks of gestation age were included in this trial, of which 449 were randomized and 2 were not randomized. There was a 1:1 randomization with 220 infants treated with placebo and 229 treated with inhaled nitric oxide.
In order to enroll in the BPD 301 study and receive inhaled nitric oxide for the prevention of BPD, a pre-term neonate could not have already previously been administered inhaled nitric oxide.
Additionally, if the pre-term neonate had undiagnosed pulmonary hypertension and happened to be placed on placebo (nitrogen) for purposes of the BPD-301 study, the pre-term neonate's hypoxic respiratory failure would have worsened and would have likely required immediate treatment with commercial inhaled nitric oxide. This administration of commercial inhaled nitric oxide would have failed the subject from the trial, both reducing the power of the trial and eliminating the subject from the study analysis.
A synopsis of the BPD-301 protocol follows.
The placebo and treatment groups were matched for the following characteristics: gestational age, age at the start of treatment, sex, length at birth, weight, head circumference, respiratory severity scores, apgar scores, and physical exam results.

[3] = system: experimental BPD in preterm lambs; settings: prolonged therapy, cited from earlier work
pre-term neonates [4] = settings: 10 ppm for 1 day, then 5 ppm for 6 days, cited from earlier work
pre-term neonates [5] = settings: cited from earlier work
pre-term neonates [6] = settings: 5 ppm increased to 10 ppm if no response; mean 3 days therapy; cited from earlier work
pre-term neonates [7] = settings: 5 ppm while intubated, cited from earlier work
pre-term neonates [8] = settings: 5 ppm for 7-21 days, cited from earlier work
[9] = FEMALE N = 64, inhaled nitric oxide-treated white infants less than 27 weeks gestational age
[10] = median treatment duration 14 days

Compound: [N]=O [inhaled nitric oxide, nitric oxide]
- death or BPD (pre-term neonates [1]): 77%
- severe intraventricular haemorrhage (IVH) (pre-term neonates [1]): no increase
- reduction in death or BPD (pre-term neonates [1]; vs placebo, p=0.14): 15.4%
- Mortality by race, % ([2]; ALL, p=0.436 vs placebo, Fisher's exact test): 11.35%
- Mortality by race, % ([2]; American Indian or Alaska Native): 0.00%
- Mortality by race, % ([2]; Asian): 0.00%
- Mortality by race, % ([2]; Black): 2.62%
- ALIVE No (mortality rate), % [2, 9]: 4.7%
- ALIVE Yes, % [2, 9]: 95.3%
- Mortality by race, % ([2]; Hispanic): 1.31%
- ALIVE No (mortality rate), % ([2]; MALE N = 56, inhaled nitric oxide-treated white infants less than 27 weeks gestational age): 21.4%
- ALIVE Yes, % ([2]; MALE N = 56, inhaled nitric oxide-treated white infants less than 27 weeks gestational age, p=0.011 male vs female): 78.6%
- Mortality by race, % ([2]; Native Hawaiian or other Pacific Islander): 0.00%
- Mortality by race, % ([2]; Other): 0.87%
- Mortality by race, % ([2]; White): 6.55%
- difference in mortality between treatment and placebo groups ([2]; any other racial category (than white)): no similar difference
- mortality rate, inhaled nitric oxide vs placebo group ([2]; overall trial population, Fisher's exact test p=0.436): not significantly different
- mortality rate vs placebo group ([2]; white population): higher mortality rate
- ALIVE No (deaths), % ([2]; white preterm infants less than 27 weeks gestational age, INO N = 120): 12.5%
- ALIVE Yes, % ([2]; white preterm infants less than 27 weeks gestational age, INO N = 120, p=0.010 vs placebo): 87.5%
- risk of death as compared to placebo ([2]; white, male, preterm infants of less than 27 weeks gestational age treated for prevention of BPD): significant risk of death
- lung vascular growth ([3]; after VEGF inhibition): improves lung vascular growth
- alveolarization ([3]; experimental BPD in preterm lambs): improves alveolarization
- CLD/death (pre-term neonates [4]): 48.6%
- severe IVH/PVL (pre-term neonates [4]): 12.4%
- reduction in "abnormal or delayed" development (pre-term neonates [4]; p=0.01): 47%
- reduction in CLD/death (pre-term neonates [4]; vs placebo, p=0.03): 24%
- reduction in severe IVH/PVL (pre-term neonates [4]; vs placebo, p=0.04): 47%
- survival without CLD at 36 weeks postmenstrual age (pre-term neonates [5]; 20 ppm for 2 to 4 days, then stepped-down weekly, 24 days): 43.9%
- improvement in survival without CLD at 36 weeks postmenstrual age (pre-term neonates [5]; 20 ppm for 2 to 4 days, then stepped-down weekly, 24 days, vs placebo, p=0.042): 20%
- discharged or off all ventilator support (pre-term neonates [5]; 40 weeks, p=0.01): 65%
- discharged or off all ventilator support (pre-term neonates [5]; 44 weeks, p=0.03): 82%
- IVH vs placebo (pre-term neonates [6]): no difference
- death or BPD vs placebo (pre-term neonates [6]): no difference
- IVH/PVL (pre-term neonates [7]): 17.5%
- CLD or death (pre-term neonates [7]; [10]): 71.6%
- CLD or death vs placebo (pre-term neonates [7]; [10]): no difference
- reduction in IVH/PVL (pre-term neonates [7]; vs placebo): 27%
- survival without BPD at 36 weeks postmenstrual age (pre-term neonates [8]): 65%
- survival without BPD at 36 weeks postmenstrual age vs placebo (pre-term neonates [8]; p=0.73): no difference

Source: patent publication US11992620B2, “Methods of reducing the risk of mortality associated with a medical treatment” (Mallinckrodt Hospital Products IP Limited, priority 2013, dated 2024)
